target: Cytochrome P450 2C9 (Homo sapiens, UniProt P11712); experiment: Inhibition of recombinant CYP2C9 by fluorescence inhibition assay; format: ADME
Sequence (P11712 whole entry): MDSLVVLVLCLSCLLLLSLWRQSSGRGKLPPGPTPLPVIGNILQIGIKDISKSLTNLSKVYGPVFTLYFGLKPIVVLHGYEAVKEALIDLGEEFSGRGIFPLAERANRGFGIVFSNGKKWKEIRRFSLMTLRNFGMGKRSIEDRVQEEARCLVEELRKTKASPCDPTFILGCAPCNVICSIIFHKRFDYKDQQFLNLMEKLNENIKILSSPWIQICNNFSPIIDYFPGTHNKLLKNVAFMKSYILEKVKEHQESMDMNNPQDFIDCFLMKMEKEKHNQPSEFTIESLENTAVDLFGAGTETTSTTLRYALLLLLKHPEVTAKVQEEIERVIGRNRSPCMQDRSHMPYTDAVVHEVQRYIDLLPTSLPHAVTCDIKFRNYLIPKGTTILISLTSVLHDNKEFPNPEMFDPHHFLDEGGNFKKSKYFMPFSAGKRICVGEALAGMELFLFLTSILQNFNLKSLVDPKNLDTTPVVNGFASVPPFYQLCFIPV

Row | Compound | IC50 [µM]
1 | CSc1ccc(-n2nc(C(F)(F)F)cc2-c2ccc(C)cc2)cc1 | > 40
2 | CCOC(=O)c1ccc(-n2nc(C(F)(F)F)cc2-c2ccc(C(F)(F)F)cc2)cc1 | > 40
3 | O=C(O)c1ccc(-n2nc(C(F)(F)F)cc2-c2ccc(C(F)(F)F)cc2)cc1 | > 40
4 | Cc1ccc(-c2cc(C(F)(F)F)nn2-c2ccc(C)cc2)cc1 | > 40
5 | NS(=O)(=O)c1ccc(-n2nc(C(F)(F)F)cc2-c2ccc(C(F)(F)F)cc2)cc1 | 17
6 | O=C(O)Cc1ccc(-n2nc(C(F)(F)F)cc2-c2ccc(C(F)(F)F)cc2)cc1 | 25
7 | Cc1ccc(-c2cc(C(F)(F)F)nn2-c2ccc([S+](C)[O-])cc2)cc1 (centres undefined) | 26
8 | CCOC(=O)c1ccc(-n2nc(C(F)(F)F)cc2-c2ccc(C)cc2)cc1 | > 40

More lines, now with the values ahead:

Row | IC50 [µM] | Compound
9 | 16 | Cc1ccc(-c2cc(C(F)(F)F)nn2-c2ccc(S(C)(=O)=O)cc2)cc1
10 | > 40 | Cc1ccc(-c2cc(C(F)(F)F)nn2-c2ccc(CC(=O)O)cc2)cc1
11 | > 40 | Cc1ccc(-c2cc(C(=O)O)nn2-c2ccc(S(N)(=O)=O)cc2)cc1
12 | 16 | Cc1ccc(-c2cc(-c3ccccc3)nn2-c2ccc(S(N)(=O)=O)cc2)cc1
13 | > 40 | Cc1ccc(-c2cc(C(F)(F)F)nn2-c2ccc(C(=O)O)cc2)cc1
14 | 10 | Cc1ccc(-c2cc(C(F)(F)F)nn2-c2ccc(S(N)(=O)=O)cc2)cc1 [CELECOXIB]

Source: ChEMBL document CHEMBL1137572, “CYP2C9 structure-metabolism relationships: substrates, inhibitors, and metabolites” (J Med Chem, 2007)
